In a compilation of properties of binary mixtures (doi:10.1007/s10953-017-0608-9):
Several values for one entry are separate records, joined by “and”; a condition that tells them apart may be missing. Equal values may be shown once.

Assay: xn = mol fraction of the nth substance listed
Settings: 101 kPa

electrical conductivity (288.15 K, x1 = 0.0001): 0.029 S/m and 0.0557 S/m | electrical conductivity (288.15 K, x1 = 0.0002): 0.0822 S/m | viscosity (288.15 K, x1 = 0.0002): 1.158 mPa·s | electrical conductivity (298.15 K, x1 = 0.0001): 0.0353 S/m and 0.0696 S/m | viscosity (298.15 K, x1 = 0.0001): 0.896 mPa·s | electrical conductivity (308.15 K, x1 = 0.0001): 0.0426 S/m and 0.0846 S/m | viscosity (308.15 K, x1 = 0.0001): 0.725 mPa·s and 0.73 mPa·s
SMILES: CCCCCCCCn1cc[n+](C)c1.[Br-] + O
